Results on six compounds are retold here after paper PMC3469158, “Hesperidin-3′-O-Methylether Is More Potent than Hesperidin in Phosphodiesterase Inhibition and Suppression of Ovalbumin-Induced Airway Hyperresponsiveness” (Evidence-based Complementary and Alternative Medicine : eCAM, 2012).

Like-named read-outs stand apart in the source and are kept apart here.

Data set [1] has as its system inflammatory cells in BALF. Nature of the data set: Inflammatory cell counts in BALF of sensitized and challenged mice. The format is in vivo, BABL/c mice. The protocol:
(§1) According to the schedule (Figure 2), ten female BABL/c mice in each group were sensitized by an intraperitoneal (i.p.) injection of 20 μg of ovalbumin emulsified in 2.25 mg of an aluminum hydroxide gel, prepared from aluminum sulfate hexadecahydrate, in a total volume of 100 μL on days 0 and 14. Mice were challenged via the airway using 1% ovalbumin in saline for 30 min on days 28, 29, and 30 by ultrasonic nebulization. After the last ovalbumin challenge, AHR was assessed on day 32 (48 h after 1% ovalbumin provocation) in each group. Each group of mice was orally (p.o.) administered the vehicle (control), 30∼100 μmol/kg of hesperidin or 10∼100 μmol/kg of hesperidin-3′-O-methylether 2 h before and 6 and 24 h after ovalbumin provocation. For comparison, sham-treated mice were challenged with saline instead of 1% ovalbumin (nonchallenged). The vehicle, a mixture of DMSO : PEG 400 : saline (1 : 1 : 8, v/v), hesperidin, or hesperidin-3′-O-methylether was administered (p.o.) at a volume of 0.01 mL/g of body weight. AHR was assessed by barometric plethysmography using a whole-body plethysmograph (WBP) and analyzed using software of Life Science Suite P3 Analysis Modules (Gould, LDS Test and Measurement LLC, Valley View, OH, USA) in unrestrained animals. Mice were placed into the main chamber of the WBP, and the baseline enhanced pause (P enh) value was determined. Then mice were first nebulized with phosphate-buffered saline (PBS), and subsequently with increasing doses (6.25∼50 mg/mL) of methacholine for 3 min for each nebulization, followed by readings of breathing parameters for 3 min after each nebulization to determine P enh values. Twenty-four hours after P enh determination, these mice were anesthetized with pentobarbital (50 mg/kg, i.p.), and the lungs were lavaged via a tracheal tube with PBS (1 × 1.0 mL, 37°C). After lavage, blood was collected from the jugular vein and allowed to sit so that it would coagulate. The collected bronchoalveolar lavage fluid (BALF) and coagulated blood were respectively centrifuged at 630 g for 7 min and at 3700 g for 10 min at 4°C. After centrifugation, the BALF and serum supernatants were stored at −20°C until determinations of cytokines, including interleukin (IL)-2, IL-4, IL-5, tumor necrosis factor (TNF)-α, and interferon (IFN)-γ by flow cytometric methods using mouse Th1/Th2 cytokine CBA kits, and of a total immunoglobulin (Ig)E and IgG2a using ELISA kits (Pharmingen, San Diego, CA, USA) according to the respective recommendations of the manufacturers. Ovalbumin-specific IgE was measured as described previously. Wells were coated with 100 μL of ovalbumin (20 μg/mL) instead of the capture antibody. Levels are expressed in arbitrary units, where 1 arbitrary unit equals the optical density of the sample divided by the optical density of unchallenged mouse serum or BALF (standard). The BALF pellet was resuspended in ACK lysing buffer (1.658 g NH4Cl, 0.2 g KHCO3, and […] EDTA in 200 mL of water) to lyse the residual erythrocytes in each sample. The number of inflammatory cells was counted using a hemocytometer (Hausser Scientific, Horsham, PA, USA). Cytospin slides were stained and cell differentials were determined in a blinded fashion by counting at least 100 cells under light microscopy. All undetectable data (<1 pg/mL) of cytokines were taken as 0.5 pg/mL.

Data set [2] concerns cytokines in BALF. As to the kind of experiment: Cytokine levels in BALF of sensitized and challenged mice (flow cytometric CBA). The format is in vivo, BABL/c mice. The protocol:
as §1
On the technique in general: In flow cytometry, cells or beads pass a laser one at a time.

The subject of data set [3] is IgE and IgG2a in serum and BALF. Nature of the data set: Total and ovalbumin-specific IgE and total IgG2a in serum and BALF (ELISA). The format is in vivo, BABL/c mice. The protocol:
as §1
In general terms: ELISA stands for enzyme-linked immunosorbent assay.

Data set [4] relates to PDE1. Nature of the data set: PDE1 activity in homogenate of guinea pig lungs or hearts ([3H]-cAMP/[3H]-cGMP two-step procedure). The format is biochemical. The note with it: guinea pig lung or heart homogenate; read-out: IC50 for PDE1 inhibition. The protocol: (§2) Activities of PDE1∼5 in the homogenate of guinea pig lungs or hearts were measured by a two-step procedure according to the previous method, using cAMP with [^3 H]-cAMP or cGMP with [^3 H]-cGMP as substrates. The enzyme preparation (25 μL) was incubated for 30 min at 37°C in a total assay volume of 100 μL containing 50 mM Tris-HCl (pH 7.4), 3 mM MgCl2, 1 mM dithiothreitol, 0.05% BSA, and 1 μM cAMP with 0.2 μCi [^3 H]-cAMP as a substrate alone or in the presence of 0.1 unit calmodulin with 10 μM CaCl2 or 5 μM cGMP, and 1 μM cGMP with 0.2 μCi [^3 H]-cGMP as another substrate alone or in the presence of 0.1 unit calmodulin with 10 μM CaCl2. […] The reagents and homogenate were mixed on ice, and the reaction was initiated by transferring the mixture to a water bath at 37°C. Following a 30 min incubation, the reaction was stopped by transferring the reaction vessel to a bath of boiling water for 3 min. After cooling on ice, 20 μL of a 1 mg/mL solution of Crotalus atrox snake venom was added to the reaction mixture, and the mixture was incubated at 37°C for 10 min. Unreacted [^3 H]-cAMP or [^3 H]-cGMP was removed by the addition of 500 μL of a 1-in-1 Tris-HCl (40 mM) buffer suspension of Dowex resin (1 × 2-400) with incubation on ice for 30 min. Each tube was then centrifuged at 3700 g for 2 min, and 100 μL of the supernatant was removed for liquid scintillation counting.

In data set [5] the test system is PDE3. As to the kind of experiment: PDE3 activity in homogenate of guinea pig lungs or hearts. Particulars: guinea pig lung or heart homogenate; read-out: IC50 for PDE3 inhibition. The format is biochemical. The protocol: as §2
The test system of data set [6] is PDE4. As to the kind of experiment: PDE4 activity in homogenate of guinea pig lungs or hearts (PDE4L). The format is biochemical. The note with it: guinea pig lung or heart homogenate; read-out: IC50 for PDE4 inhibition (PDE4L value). The protocol: as §2
Data set [7] deals with high-affinity rolipram-binding sites (HARBSs), PDE4H. As to the kind of experiment: Displacement of [3H]-rolipram from high-affinity rolipram-binding sites of brain cell membranes (PDE4H). Also on record: species or system guinea pig. Particulars: for EC50: 2 nM [3H]-rolipram, guinea pig brain cell membranes, read-out: EC50 (PDE4H) for displacing [3H]-rolipram binding; for PDE4H/PDE4L ratio: therapeutic ratio, EC50 (PDE4H) / IC50 (PDE4L). The protocol: When the above-mentioned guinea pigs were sacrificed, the whole brains were removed and homogenized with a glass/Teflon homogenizer (Glas-Col, Terre Haute, IN, USA) in 10 volumes of cold medium (pH 6.5) containing 20 mM Bis-Tris, 2 mM benzamidine, 2 mM EDTA, 50 mM sodium chloride, 0.1 mM PMSF, and 1 mM dithiothreitol. At 4°C, the homogenate was centrifuged at 170 g for 5 min to remove connective tissues and blood vessels. The suspended homogenate was then recentrifuged at 40,000 g for 30 min to separate the cytosolic and particulate portions. The particulate portion was resuspended in a suspension at a concentration of 400 mg/mL (wet weight/volume), after washing three times with homogenizing buffer. The particulate portion mainly consisted of cell membranes. […] Briefly, the reaction buffer consisted of 50 mM Tris-HCl and 5 mM MgCl2 (pH 7.5). […] After 1 h, the reaction was terminated by moving the reaction vessel into crushed ice. Then the reaction mixture was transferred onto Whatman GF/B glass-fiber filters, which were soaked in a 0.3% polyethyleneimine solution in a mini-funnel.

The subject of data set [8] is airway hyperresponsiveness in ovalbumin-sensitized and challenged mice. As to the kind of experiment: Ovalbumin-induced airway hyperresponsiveness, Penh by whole-body plethysmography. The format is in vivo, BABL/c mice. The note with it: for Penh value at the baseline / Penh value with PBS nebulization: sensitized and challenged mice. The protocol: as §1
For data set [9], the system named is duration of xylazine/ketamine-induced anesthesia. As to the kind of experiment: Xylazine/ketamine-induced anesthesia (surrogate of emesis). The format is in vivo, BALB/c mice. Particulars: 0.25 h before anesthesia, mice. On the procedure:
According to a previously described method and modified by us, hesperidin, hesperidin-3′-O-methylether (each 300 μmol/kg, subcutaneously (s.c.)), or Ro 20-1724 (0.01∼1 μmol/kg, s.c.), a reference drug, was, respectively, injected into 8∼12-week-old female BALB/c mice 1, 1 or 0.25 h prior to an i.p. injection of xylazine (10 mg/kg)/ketamine (70 mg/kg). The vehicle (control) for hesperidin, hesperidin-3′-O-methylether, or Ro 20-1724 was a mixture of DMSO : PEG 400 : saline (1 : 1 : 8, v/v). After the loss of the righting reflex (i.e., when a mouse remained on its back and no longer spontaneously righted itself to a prone position), the duration of anesthesia was measured until its return as the endpoint.

In data set [10] the test system is xylazine/ketamine-induced anesthesia. Particulars: administered s.c.; cited from earlier work.
Data set [11] relates to PDE4. Particulars: read-out: IC50 for PDE4 inhibition; cited from earlier work.

In the case of `COc1ccc(C2CC(=O)c3c(O)cc(O[C@@H]4O[C@H](CO[C@@H]5O[C@@H](C)[C@H](O)[C@@H](O)[C@H]5O)[C@@H](O)[C@H](O)[C@H]4O)cc3O2)cc1OC` (stereo partly drawn) [hesperidin-3′-O-methylether], the “numbers of all types of inflammatory cells in BALF” value in [1] (10 μmol/kg p.o.) is “unaffected”. The “numbers of all inflammatory cells examined in BALF” value in data set [1] (30 μmol/kg p.o.) is “significantly suppressed”. Further, the “increases in numbers of total inflammatory cells, macrophages, lymphocytes, neutrophils, and eosinophils in BALF” value in [1] (30∼100 μmol/kg p.o.) is reported as “significantly suppressed”. In addition, the “level of IFN-γ in BALF compared to the control” value in data set [2] (100 μmol/kg p.o.) is recorded as “significantly enhanced”. Besides, in [2] (10∼100 μmol/kg p.o.), the “increases in levels of IL-2, IL-4, TNF-α in BALF” value was “significantly suppressed”. Further, the “increase in level of IL-5 in BALF” value in data set [2] (30∼100 μmol/kg p.o.) is “significantly suppressed”. In data set [3] (30 μmol/kg p.o.), the “level of total IgG2a in the serum” value is given as “enhanced”; the “total and OVA-specific IgE levels in the serum and BALF” value is reported as “significantly suppressed”. Further, in data set [3] (30∼100 μmol/kg p.o.), the “levels of total and ovalbumin-specific IgE in the serum and BALF” value is “dose-dependently and significantly suppressed”; the “reduction of total IgG2a level in the serum” value is “dose-dependently and significantly reversed”. The 50% inhibitory concentration (IC50) (in general, the concentration that inhibits the measured activity by half) in data set [4] was found to be 13.6 ± 2.3 µM. In addition, in [5], the IC50 was determined as 13.2 ± 0.9 µM. The IC50 in data set [6] was found to be 13.9 ± 2.4 µM. In data set [7], the EC50 (commonly the midpoint of the concentration-response curve) came out at 218 ± 32.1 µM and the PDE4H/PDE4L ratio amounted to 15.7. For the same compound, in data set [8] (10 μmol/kg p.o.), the “Penh value at the baseline” value worked out at 2.41 ± 0.05 and the “Penh value with PBS nebulization” value stood at 2.41 ± 0.06. Besides, in data set [8] (30 μmol/kg p.o.), the “suppression of AHR” value is “significantly suppressed AHR”, the “Penh value at the baseline” value is reported as 2.38 ± 0.06 and the “Penh value with PBS nebulization” value is recorded as 2.42 ± 0.05. For the same compound, in [8] (100 μmol/kg p.o.), the “Penh value at the baseline” value is recorded as 2.41 ± 0.05 and the “Penh value with PBS nebulization” value was 2.39 ± 0.06. In addition, the “enhancement of Penh values induced by 25 and 50 mg/mL methacholine” value in data set [8] (30∼100 μmol/kg p.o., vs control (vehicle)) is given as “significantly attenuated”.

With `CCCCOc1cc(CC2CNC(=O)N2)ccc1OC` (stereo not drawn) [Ro 20-1724, 4-(3-butoxy-4-methoxybenzyl)-2-imidazolidinone, reference compound], in data set [9] (0.01∼1 μmol/kg s.c.), the “duration of xylazine/ketamine-induced anesthesia” value is “dose-dependently shortened”. For the same compound, the “duration of xylazine/ketamine-induced anesthesia” value in [9] (0.03∼1 μmol/kg s.c.) is “significantly shortened”. For the same compound, the half-maximal inhibitory concentration (IC50) in data set [6] was found to be 3.5 ± 0.2 µM. Also, in data set [7], the EC50 was 0.105 ± 0.0131 µM and the PDE4H/PDE4L ratio turned out to be 0.03.

As for `COc1ccc([C@@H]2CC(=O)c3c(O)cc(O)cc3O2)cc1O` [hesperetin], the xylazine/ketamine-induced anesthesia result in data set [10] is reported as “not influence”. In addition, the IC50 in data set [11] is 28.2 µM.

For `CCOC(=O)C1=C[C@]2(CC)CCCN3CCc4c(n1c1ccccc41)[C@@H]32` [vinpocetine, reference compound], in [4], the IC50 is 30.8 ± 1.1 µM.

In the case of `COc1cc(O)c2c(c1)O[C@H](c1ccc(OC)c(OC)c1)CC2=O` [hesperetin-7,3′-O-dimethylether], the IC50 in data set [11] was 3 µM.

With `Cc1[nH]c(=O)c(C#N)cc1-c1ccncc1` [milrinone, reference compound], in [5], the concentration for half-maximal inhibition (IC50) was 2.7 ± 0.8 µM.
